“And” between values parts separate entries of the source, which are not always exact repeats. Equal values may be shown once. Inconclusive results and toxic doses are left out. The calls were made as follows: active = survival T/C of 150% or more; inactive = T/C below 125% in these data.
Tested on: P388 leukemia ip, CD2F1 mice, survival T/C
Experiment: NCI In Vivo Anticancer Drug Screen. Data for tumor model P388 Leukemia (intraperitoneal) in CD2F1 (CDF1) mice
Details: endpoint: median survival time, higher = longer survival
Procedure, shortened: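 Mice carrying the transplanted tumor received test compound or vehicle. Survival was recorded in each group, and the value is the treated-group measurement divided by that of the vehicle-treated control group.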

[1] = dose: 6.25 mg/kg/injection, schedule: Q01DX009 (ip), vehicle: Klucel (hydroxypropylcellulose) (HPC)
[2] = dose: 12.5 mg/kg/injection, schedule: Q01DX009 (ip), vehicle: Klucel (hydroxypropylcellulose) (HPC)
[3] = dose: 25.0 mg/kg/injection, schedule: Q01DX009 (ip), vehicle: Klucel (hydroxypropylcellulose) (HPC)
[4] = dose: 60.0 mg/kg/injection, schedule: Q01DX005 (ip), vehicle: saline
[5] = dose: 50.0 mg/kg/injection, schedule: Q01DX009 (ip), vehicle: saline with Tween-80
[6] = dose: 100.0 mg/kg/injection, schedule: Q01DX009 (ip), vehicle: saline with Tween-80
[7] = dose: 200.0 mg/kg/injection, schedule: Q01DX009 (ip), vehicle: saline with Tween-80
[8] = dose: 12.5 mg/kg/injection, schedule: Q04DX003 (ip), vehicle: Klucel (hydroxypropylcellulose) (HPC)
[9] = dose: 50.0 mg/kg/injection, schedule: Q01DX009 (ip), vehicle: Klucel (hydroxypropylcellulose) (HPC)
[10] = dose: 100.0 mg/kg/injection, schedule: Q01DX009 (ip), vehicle: Klucel (hydroxypropylcellulose) (HPC)
[11] = dose: 25.0 mg/kg/injection, schedule: Q04DX003 (ip), vehicle: Klucel (hydroxypropylcellulose) (HPC)
[12] = dose: 50.0 mg/kg/injection, schedule: Q04DX003 (ip), vehicle: Klucel (hydroxypropylcellulose) (HPC)
[13] = dose: 100.0 mg/kg/injection, schedule: Q04DX003 (ip), vehicle: Klucel (hydroxypropylcellulose) (HPC)
[14] = dose: 200.0 mg/kg/injection, schedule: Q04DX003 (ip), vehicle: Klucel (hydroxypropylcellulose) (HPC)
[15] = dose: 50.0 mg/kg/injection, schedule: Q01DX005 (ip), vehicle: Klucel (hydroxypropylcellulose) (HPC)
[16] = dose: 100.0 mg/kg/injection, schedule: Q01DX005 (ip), vehicle: Klucel (hydroxypropylcellulose) (HPC)
[17] = dose: 200.0 mg/kg/injection, schedule: Q01DX005 (ip), vehicle: Klucel (hydroxypropylcellulose) (HPC)
[18] = dose: 50.0 mg/kg/injection, schedule: Q04DX003 (ip), vehicle: saline with Tween-80
[19] = dose: 100.0 mg/kg/injection, schedule: Q04DX003 (ip), vehicle: saline with Tween-80
[20] = dose: 200.0 mg/kg/injection, schedule: Q04DX003 (ip), vehicle: saline with Tween-80

Measured: T/C

COc1ccc(C(CC(=O)O)c2cc3c(cc2OC)OCO3)cc1 (stereo not drawn)
inactive: dose: 50.0 mg/kg/injection, schedule: Q01DX005 (ip), vehicle: distilled water + Tween-80 94 % of control | dose: 100.0 mg/kg/injection, schedule: Q01DX005 (ip), vehicle: distilled water + Tween-80 96 % of control | dose: 200.0 mg/kg/injection, schedule: Q01DX005 (ip), vehicle: distilled water + Tween-80 90 % of control

CCOc1cccc(/C=C2/C(=O)N(Cc3ccco3)SC2=S)c1O
inactive: dose: 3.12 mg/kg/injection, schedule: Q01DX009 (ip), vehicle: Klucel (hydroxypropylcellulose) (HPC) 93 % of control | [1] 93 % of control | [2] 93 % of control and 94 % of control | [3] 98 % of control

COc1ccc(CC#N)cc1OC
inactive: dose: 3.75 mg/kg/injection, schedule: Q01DX009 (ip), vehicle: saline with Tween-80 90 % of control | dose: 7.5 mg/kg/injection, schedule: Q01DX009 (ip), vehicle: saline with Tween-80 90 % of control | dose: 15.0 mg/kg/injection, schedule: Q01DX009 (ip), vehicle: saline with Tween-80 90 % of control

Cc1ccoc1OP(=O)(N(C)C)N(C)C
inactive: dose: 15.0 mg/kg/injection, schedule: Q01DX005 (ip), vehicle: saline 102 % of control | dose: 30.0 mg/kg/injection, schedule: Q01DX005 (ip), vehicle: saline 100 % of control | [4] 108 % of control

CC(O)(c1ccc(Br)cc1)C1CC1 (stereo not drawn)
inactive: dose: 100.0 mg/kg/injection, schedule: Q01DX001 (ip), vehicle: Klucel (hydroxypropylcellulose) (HPC) 103 % of control | dose: 200.0 mg/kg/injection, schedule: Q01DX001 (ip), vehicle: Klucel (hydroxypropylcellulose) (HPC) 91 % of control | dose: 400.0 mg/kg/injection, schedule: Q01DX001 (ip), vehicle: Klucel (hydroxypropylcellulose) (HPC) 96 % of control

O=C(Nc1ccc(F)cc1)N1c2ccccc2SC12CCCC2
inactive: [5] 91 % of control | [6] 93 % of control | [7] 93 % of control

CS(=O)(=O)OCc1ccc(COS(C)(=O)=O)cc1
inactive: [8] 123 % of control

Cc1ccc2c(N(C)C)cc(N(C)C)nc2c1C
inactive: [9] 104 % of control | [10] 105 % of control

CCOC(=O)CCCCCNc1nc(Cl)nc(Cl)n1
inactive: [5] 98 % of control | [6] 103 % of control | [7] 87 % of control

N=C(N)S(=O)(=O)c1ccccc1
inactive: [8] 102 % of control and 106 % of control | [11] 106 % of control and 108 % of control (2×) | [12] 102 % of control and 107 % of control and 121 % of control | [13] 112 % of control | [14] 118 % of control

CS(C)(NC(N)=O)OS(=O)(=O)O
inactive: [4] 98 % of control | dose: 120.0 mg/kg/injection, schedule: Q01DX005 (ip), vehicle: saline 98 % of control | dose: 240.0 mg/kg/injection, schedule: Q01DX005 (ip), vehicle: saline 101 % of control

COC(=O)C1=COC(C)C2CN3CCc4c([nH]c5cc(OC)c(OC)cc45)C3CC12 (stereo not drawn)
inactive: dose: 50.0 mg/kg/injection, schedule: Q01DX005 (ip), vehicle: saline with Tween-80 101 % of control | dose: 100.0 mg/kg/injection, schedule: Q01DX005 (ip), vehicle: saline with Tween-80 102 % of control | dose: 200.0 mg/kg/injection, schedule: Q01DX005 (ip), vehicle: saline with Tween-80 115 % of control

COCCN=NNc1ccc(C#N)cc1
inactive: dose: 12.5 mg/kg/injection, schedule: Q01DX009 (ip), vehicle: distilled water + Tween-80 100 % of control | dose: 25.0 mg/kg/injection, schedule: Q01DX009 (ip), vehicle: distilled water + Tween-80 105 % of control | dose: 50.0 mg/kg/injection, schedule: Q01DX009 (ip), vehicle: distilled water + Tween-80 101 % of control | dose: 100.0 mg/kg/injection, schedule: Q01DX009 (ip), vehicle: distilled water + Tween-80 97 % of control

O=C1OC(=O)C2CC3C(CC12)C1(Cl)C(Cl)=C(Cl)C3(Cl)C1(Cl)Cl (stereo not drawn)
inactive: [15] 104 % of control | [16] 100 % of control | [17] 107 % of control

COc1ccc(CSC(=S)Nc2ccc(C(F)(F)F)cc2)cc1
inactive: dose: 50.0 mg/kg/injection, schedule: Q01DX009 (ip), vehicle: suspension in saline 110 % of control | dose: 100.0 mg/kg/injection, schedule: Q01DX009 (ip), vehicle: suspension in saline 101 % of control | dose: 200.0 mg/kg/injection, schedule: Q01DX009 (ip), vehicle: suspension in saline 105 % of control

CCOC(=O)c1sc2nc(C)cc(C)c2c1N
inactive: dose: 6.25 mg/kg/injection, schedule: Q01DX005 (ip), vehicle: saline with Tween-80 95 % of control | dose: 12.5 mg/kg/injection, schedule: Q01DX005 (ip), vehicle: saline with Tween-80 100 % of control | dose: 25.0 mg/kg/injection, schedule: Q01DX005 (ip), vehicle: saline with Tween-80 98 % of control

O=C(O[C@H]1CCN2C[C@H]3C[C@H](CN4C(=O)CCC[C@H]34)[C@@H]2C1)c1ccc(O)cc1
inactive: dose: 6.25 mg/kg/injection, schedule: Q01DX005 (ip), vehicle: Klucel (hydroxypropylcellulose) (HPC) 103 % of control | dose: 12.5 mg/kg/injection, schedule: Q01DX005 (ip), vehicle: Klucel (hydroxypropylcellulose) (HPC) 106 % of control | dose: 25.0 mg/kg/injection, schedule: Q01DX005 (ip), vehicle: Klucel (hydroxypropylcellulose) (HPC) 104 % of control

CCOP(=O)(O)C1CCCC(C)[N-]1.CCOP(=O)(O)C1CCCC(C)[N-]1.[Fe+2] (stereo not drawn)
inactive: [11] 101 % of control | [12] 95 % of control | [13] 100 % of control and 89 % of control

CC(=O)Nc1ccc(S(=O)(=O)Nc2ccc(O)c3ccccc23)cc1
inactive: [18] 88 % of control | [19] 90 % of control | [20] 100 % of control | dose: 400.0 mg/kg/injection, schedule: Q04DX003 (ip), vehicle: saline with Tween-80 117 % of control

CC1(c2ccc([N+](=O)[O-])cc2)OC(=O)C(=Cc2ccc([N+](=O)[O-])s2)C(=O)O1 (stereo not drawn)
inactive: [5] 103 % of control | [6] 96 % of control | [7] 103 % of control

CCOC(=O)CC1NCCc2ccccc21 (stereo not drawn)
inactive: dose: 25.0 mg/kg/injection, schedule: Q01DX005 (ip), vehicle: saline + alcohol 103 % of control | dose: 50.0 mg/kg/injection, schedule: Q01DX005 (ip), vehicle: saline + alcohol 103 % of control | dose: 100.0 mg/kg/injection, schedule: Q01DX005 (ip), vehicle: saline + alcohol 103 % of control | dose: 200.0 mg/kg/injection, schedule: Q01DX005 (ip), vehicle: saline + alcohol 101 % of control

CC(CN=C(CC(=O)C(F)(F)F)C(F)(F)F)N=C(CC(=O)C(F)(F)F)C(F)(F)F.[Ni] (stereo not drawn)
inactive: dose: 100.0 mg/kg/injection, schedule: Q04DX002 (ip), vehicle: saline with Tween-80 98 % of control | dose: 200.0 mg/kg/injection, schedule: Q04DX002 (ip), vehicle: saline with Tween-80 98 % of control | dose: 400.0 mg/kg/injection, schedule: Q04DX002 (ip), vehicle: saline with Tween-80 93 % of control

CC(C=O)CC1CCCCC1 (stereo not drawn)
inactive: [18] 100 % of control | [19] 100 % of control | [20] 109 % of control

O=C(CBr)N1c2ccccc2Sc2c1ccc1ccccc21
inactive: [1] 86 % of control | [2] 111 % of control | [3] 117 % of control | [9] 117 % of control | [12] 99 % of control and 114 % of control | [10] 120 % of control | [13] 99 % of control and 113 % of control and 120 % of control | dose: 200.0 mg/kg/injection, schedule: Q01DX009 (ip), vehicle: Klucel (hydroxypropylcellulose) (HPC) 120 % of control | [14] 101 % of control and 120 % of control and 87 % of control | dose: 400.0 mg/kg/injection, schedule: Q04DX003 (ip), vehicle: Klucel (hydroxypropylcellulose) (HPC) 106 % of control and 123 % of control

NC(=O)N/N=C1/CCC(O)CC1CC(=O)O (stereo not drawn)
inactive: [15] 103 % of control | [16] 100 % of control | [17] 97 % of control

CC(=O)Oc1cc2c(cc1Cc1ccc3c(c1)OCO3)OCO2
inactive: [15] 101 % of control | [16] 95 % of control | [17] 100 % of control

Source: PubChem BioAssay AID330 (DTP/NCI, 2004)
